The test system of one series is tracheal smooth muscle. The series can be described thus: Dilating action to contraction of tracheal smooth muscle (potassium chloride-induced contraction of isolated trachea segment, Magnus tube). It is filed as cell-based. To be noted: Cavia porcellus; 30 μM test substance; contraction induced by 72.7 mM potassium chloride; guinea pig (Hartley, male) trachea segment; read-out: Activity (suppressing rate for contraction by potassium chloride). The method, then: Each sample is tested by using two segment obtained from one animal; the trachea was removed from a guinea pig (Hartley, male, seven weeks age) and was made the segment, 6 mm in length. The segment was suspended in a Magnus tube containing a physiological salt solution of 37° C. with a flow of mixed gas consisting of 95% oxygen and 5% carbon dioxide gas. A base-line tension of 1 g was applied to the segment and, after tension of the sample became stable, the solution was exchanged with a solution containing 72.7 mM of potassium chloride to induce a contraction. When tension of the contraction by potassium chloride became stable, a compound of the formula (1) was added as a test substance to measure the change in the tension. The test substance was dissolved in dimethyl sulfoxide and added thereto. Incidentally, at the stage of addition, the final concentration of dimethyl sulfoxide was made not more than 0.3%. Changes in the tension was recorded on a recorder (R-64V, Rika Denki) after introducing to an amplifier for strain pressure (AP-621G, Nippon Koden Kogyo) via an FD pickup transducer (TB-611T, Nippon Koden Kogyo). Tension before addition of potassium chloride was set as 0 while that after addition of potassium chloride was set as 100 and the suppressing rate for contraction by potassium chloride after addition of the test substance was expressed by a relative percentage whereby the activity was determined according to the following criteria.
The Compound No. in the table is the same as that in the Production Examples.

Another series deals with rats. As to conditions: male, rat, in vivo. The method, then: Toxicity test was conducted only for the Compounds 11, 43 and 80 by means of a single oral administration to rats.
Animals used: three males

Some results are limits rather than exact numbers.

Turning to `O=C1Cc2ccccc2Oc2cc(O)cc(O)c21` [Compound 11, 7,9-dihydroxy-10,11-dihydrodibenz[b,f]oxepin-10-one], the inhibition at 30 µM in the series with tracheal smooth muscle is not below 50%. Also, in the series with rats, the minimum lethal dose entry was “not less than 2,000 mg/kg”. In the case of `O=C1Cc2ccccc2Sc2cc(O)c(O)cc21` [Compound 43, 7,8-dihydroxy-10,11-dihydrodibenzo[b,f]thiepin-10-one], in the series with rats, the minimum lethal dose entry is “not less than 2,000 mg/kg”. In the case of `O=C1Cc2ccccc2Sc2cc(O)cc(O)c21` [Compound 80, 7,9-dihydroxy-10,11-dihydrodibenzo[b,f]thiepin-10-one], in the series on tracheal smooth muscle, the inhibition at 30 µM is not below 50%. Besides, the minimum lethal dose entry with rats is recorded as “not less than 2,000 mg/kg”. With `CSc1ccc2c(c1)CC(=O)c1c(O)cc(O)cc1O2` [Compound 108, 2-thiomethyl-7,9-dihydroxy-10,11-dihydrodibenzo[b,f]oxepin-10-one], the inhibition at 30 µM in the series on tracheal smooth muscle is not below 50%. Same read-out and setting: under `O=C1Cc2cc(Br)ccc2Oc2cc(O)cc(O)c21` [Compound 110, 2-bromo-7,9-dihydroxy-10,11-dihydrodibenzo[b,f]oxepin-10-one] stands not below 50%; under `CCc1ccc2c(c1)CC(=O)c1c(O)cc(OC)cc1O2` [Compound 111, 2-ethyl-9-hydroxy-7-methoxy-10,11-dihydrodibenzo[b,f]oxepin-10-one], not below 50%. With `CCc1ccc2c(c1)CC(=O)c1c(O)cc(O)cc1O2` [Compound 112, 2-ethyl-7,9-dihydroxy-10,11-dihydrodibenzo[b,f]oxepin-10-one], the inhibition at 30 µM in the series with tracheal smooth muscle was not below 50%. Same read-out and setting: the value for `O=C1Cc2cc(C#CCO)ccc2Oc2cc(O)cc(O)c21` [Compound 114] was not below 50%. Same read-out and setting: the value for `O=C1Cc2cc(C#CCCO)ccc2Oc2cc(O)cc(O)c21` [Compound 115, 2-(4-hydroxy-1-butynyl)-7,9-dihydroxy-10,11-dihydrodibenzo[b,f]oxepin-10-one] was not below 50%; that for `O=C1Cc2cc(C#CCCCO)ccc2Oc2cc(O)cc(O)c21` [Compound 116, 2-(5-hydroxy-1-pentynyl)-7,9-dihydroxy-10,11-dihydrodibenzo[b,f]oxepin-10-one] was not below 50%.

The record behind these values is patent publication US6495592B1, “Tracheal smooth muscle relaxants” (Nippon Suisan Kaisha, Ltd., priority 1996, dated 2002).
